Data reported in PMC11923102 (Nature Communications, 2025).
Substitutions are numbered along the chain they refer to. Where two headings read alike, the source gives them in different places.

How the values were obtained:
Type in all cases: cell-based
TRPV3 (hTRPV3) [1] = molecular target: T1, TRPV3 (hTRPV3) (Homo sapiens, UniProt Q8NET8, Q695L); assay: whole-cell patch clamp
T1 sequence (Q8NET8 1-790 Q695L): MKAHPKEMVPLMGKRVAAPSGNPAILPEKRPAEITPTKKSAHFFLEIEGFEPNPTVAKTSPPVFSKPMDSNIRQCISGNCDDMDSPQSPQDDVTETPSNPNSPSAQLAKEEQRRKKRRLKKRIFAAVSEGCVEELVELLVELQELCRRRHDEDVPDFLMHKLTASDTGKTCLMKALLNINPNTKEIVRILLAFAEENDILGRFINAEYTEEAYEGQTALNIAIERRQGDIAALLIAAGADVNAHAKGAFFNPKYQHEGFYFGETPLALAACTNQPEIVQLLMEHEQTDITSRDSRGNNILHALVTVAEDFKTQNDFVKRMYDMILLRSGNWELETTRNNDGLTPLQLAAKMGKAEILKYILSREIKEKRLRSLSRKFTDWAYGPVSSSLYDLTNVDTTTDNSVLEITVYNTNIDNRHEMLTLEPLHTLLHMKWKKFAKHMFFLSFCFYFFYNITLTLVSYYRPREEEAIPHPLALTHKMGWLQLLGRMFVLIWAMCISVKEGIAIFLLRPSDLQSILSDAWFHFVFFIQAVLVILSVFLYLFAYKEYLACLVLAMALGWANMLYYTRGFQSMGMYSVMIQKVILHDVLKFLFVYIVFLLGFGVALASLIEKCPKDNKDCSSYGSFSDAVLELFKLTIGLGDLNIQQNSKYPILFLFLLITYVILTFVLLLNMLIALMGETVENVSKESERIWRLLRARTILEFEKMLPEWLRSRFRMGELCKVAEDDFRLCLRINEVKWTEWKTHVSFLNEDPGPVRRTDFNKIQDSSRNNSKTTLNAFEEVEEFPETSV

TRPV3 (hTRPV3) [2] = molecular target: T2, TRPV3 (hTRPV3) (Homo sapiens, UniProt Q8NET8); assay: cryo-EM structure
T2 sequence (Q8NET8 1-790): T1 sequence (Q8NET8 1-790 Q695L) with L695Q

mTRPV3 = molecular target: T3, mTRPV3 (Mus musculus, UniProt Q8K424); assay: whole-cell patch clamp, inhibition of citronellal-evoked currents
T3 sequence (Q8K424 1-791): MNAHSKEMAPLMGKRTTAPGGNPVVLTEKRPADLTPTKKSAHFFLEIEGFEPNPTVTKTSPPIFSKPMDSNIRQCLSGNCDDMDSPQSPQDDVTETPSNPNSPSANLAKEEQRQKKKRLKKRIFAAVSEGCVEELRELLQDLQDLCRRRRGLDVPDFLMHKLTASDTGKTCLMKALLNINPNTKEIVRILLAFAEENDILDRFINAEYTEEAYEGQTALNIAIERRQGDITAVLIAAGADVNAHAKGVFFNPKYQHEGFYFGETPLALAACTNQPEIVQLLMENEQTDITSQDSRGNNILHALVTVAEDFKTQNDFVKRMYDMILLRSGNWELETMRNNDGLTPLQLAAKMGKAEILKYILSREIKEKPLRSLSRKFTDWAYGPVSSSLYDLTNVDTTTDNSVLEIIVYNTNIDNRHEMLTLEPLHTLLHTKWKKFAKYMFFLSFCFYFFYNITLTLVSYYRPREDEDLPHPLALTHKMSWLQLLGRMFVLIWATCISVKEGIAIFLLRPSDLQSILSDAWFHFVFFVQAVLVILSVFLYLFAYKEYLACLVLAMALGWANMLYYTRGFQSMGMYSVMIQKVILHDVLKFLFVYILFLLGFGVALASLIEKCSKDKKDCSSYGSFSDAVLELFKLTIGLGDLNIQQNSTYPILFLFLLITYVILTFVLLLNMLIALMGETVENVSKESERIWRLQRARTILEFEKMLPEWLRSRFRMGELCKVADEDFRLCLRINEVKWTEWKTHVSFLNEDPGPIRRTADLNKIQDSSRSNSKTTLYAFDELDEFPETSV

TRPV3 (hTRPV3) [3] = molecular target: T2, TRPV3 (hTRPV3); assay: cryo-EM structure; remark: listed apart in the source

With `C=CC(C)(O)CCC=C(C)C` (stereo not shown) [linalool] as the compound, how does the EC50 (TRPV3 (hTRPV3) [1]) read?
The EC50 was 0.42 ± 0.02 mM.

What about the EC50 (TRPV3 (hTRPV3) [2]) of the same compound?
Its EC50 is 6.19 ± 0.6 mM.

How did the IC50 (mTRPV3) turn out when `CCCCOc1ccc(C(=O)CCN2CCCCC2)cc1` [dyclonine] was run?
The IC50 was 0.00073 ± 5e-05 mM.

With `CC(C)=CCC/C(C)=C/C=O` [citral] as the compound, how does the EC50 (TRPV3 (hTRPV3) [3]) read?
Its EC50 is 6.61 ± 0.93 mM.
